“And” between values parts separate entries of the source, which are not always exact repeats. Equal values may be shown once. Read-outs that look alike come from different tables or passages of the source.
Tests used:
[1] = system: human red blood cells (A, B, and O); test: Hemagglutination; assay type: cell-based
Experimental: In the hemagglutination procedure, red blood cells were washed and resuspended to make a 2% suspension in phosphate buffered saline. The lectin solution was serially diluted in microliter plates followed by the addition of the 2% red blood cell suspension. Hemagglutination was observed after 1 hour at room temperature. One hemagglutination unit (HU) is defined as the minimum amount of amaranthin to completely agglutinate cells and is equivalent to a lectin concentration of 2 μg/ml.

[2] = system: asialo-ovine submaxillary mucin; test: Metal analysis of amaranthin activity in the precipitation assay; assay type: binding
Experimental: For metal analysis two methods were used to determine if metals were necessary for amaranthin activity. 1) Amaranthin was dialyzed against 1 N acetic acid at 4° C. overnight, and then against 20 mM phosphate buffer at pH 7.2. The acid dialyzed amaranthin was then used in the standard precipitation assay with asialo-ovine submaxillary mucin and the indicated additions. 2) After dialysis into metal free buffer, amaranthin was incubated for 1 hour at room temperature in the presence of the indicated ethylene diamine tetraacetate (EDTA) concentrations. Asialo-ovine submaxillary mucin was then added, and the precipitation assay was carried out as usual. All glassware was acid-washed and buffers were passed over a Chelex 100 column, a trademarked, column commercially available from Bio-Rad to remove divalent metal ions.

[3] = system: well differentiated colonic adenocarcinoma sections; test: Inhibition of lectin binding with hapten sugars on tissue sections; design: species or system human; key to Labeling score: 4^+: Maximum labeling of the brown reaction product; 0: No staining of the slide compared to control sections; 1^+: trace or weak staining definitely not seen on control slides; 2+3^+: stronger staining, but definitely less than maximal
Experimental: Four micron paraffin embedded tissue sections attached to glass slides were deparaffinized by serial incubations in xylene (twice), absolute ethanol (thrice), 95% ethanol, 70% ethanol, water and finally equilibrated in phosphate buffered saline (PBS), pH 7.0, containing 0.1% bovine serum albumin (BSA) commercially available from Sigma Corp of St. Louis, Mo. The slides were blotted dry adjacent to the tissue sections, and biotinylated lectin was added at a concentration of 10 μg/ml (for ACA) and 20 μg/ml (for PNA) in a quantity sufficient to completely cover the hydrated tissue (100-2001 μl). The lectin was rinsed off after a 30 minute incubation by eight 2-second dips into phosphate buffered saline. The slides were again blotted, and the tissue covered with Streptavidin-horseradish peroxidase (HRP) obtained from Zymed Laboratories, San Francisco, Calif. at a concentration of 10 μg/ml for 30 minutes. The slides were rinsed as mentioned above, and the pigmented reaction product developed by the addition of a freshly prepared chromogen reagent solution prepared within two hours of use as follows.
3,3'-diaminobenzidine was aliqotted at 5 mg/mL in 0.01 M (Tris) tris hydroxy methyl amino methane saline, pH 7.5 and frozen at -70° C. until use. For use, the aliquot was thawed, diluted 1:10 in 0.01 M (Tris) tris hydroxy methyl amino methane saline pH 7.5, and 3.3 μL of 30% H2 O2 were added to each 5 ml. This solution was allowed to stand for 10 min, and 100-200 μl was applied to the tissue sections that had been incubated earlier with biotinylated lectin and Streptavidin-HRP. After 10 min, the slides were rinsed with albumin-free phosphate buffered saline. The tissues were briefly counterstained for 50 seconds with Gill's #3 hematoxylin bovine serum albumin, commercially available from Sigma Corp. of St. Louis, Mo., rinsed with water, and serially dehydrated using graded alcohols and xylene, and embedded in Permount, a trademarked, commercially available product of Allied-Fischer Scientific of Livonia, Mich.
The specificity of lectin binding was evaluated by preincubating the biotinylated lectin with inhibitory hapten sugar for 1-2 hours prior to its application to the tissue. In each instance, the reagents were prepared so that the final concentration of lectin on the slide was either 10 or 20 μg/ml and the hapten sugar was as indicated in the results. Galactose, lactose, GalNAc, and galactose-β1-3N-acetylgalactosamine-α-O-benzyl (T-antigen-α-O-benzyl) were also obtained from Sigma Corp.
The stained sections were examined with a light microscope using a 25× and 40× objective lenses and 10× eyepiece. Evaluation of lectin binding required the use of several approaches. First, the binding specificity was confirmed by coincubation of lectin with hapten sugars known to bind the lectin maximally. Maximum labeling of the brown reaction product was arbitrarily assigned a score 4^+. See Boland, C. R., Bresalier, R. S., and Roberts, J. A. "Assay of lectin binding sites in colonic cancer-associated mucins: comparison of fluorescence microscopy with a quantitative chromatographic technique." J. Histochem. Cytochem., 36: 1329-1334, 1988. No staining of the slide compared to control sections (i.e., in which lectin was omitted from the staining procedure) was assigned a score of 0. Intermediate scores of 1^+ (trace or weak staining definitely not seen on control slides) and 2+3^+ (stronger staining, but definitely less than maximal) were assigned. […] See Boland. This method was used to confirm the binding specificity to known "positive" tissues and to evaluate changes in lectin binding after neuraminidase treatment.
Specimens of well differentiated colonic cancers were incubated with biotinylated lectins. Working concentrations on the slide were 10 μg/ml for ACA and 20 μg/ml for PNA. The hapten sugars galactose (Gal), N-acetylgalactosamine (GalNAc), and Galβ1,3GalNAc-α-O-benzyl (T-antigen) were used to inhibit lectin binding to the tissues. […]

[4] = system: normal colonic epithelium; assay type: binding, human; design: key to Labeling of normal colon in the tissue survey / Staining (global score 0-3+): 4^+: Maximum labeling of the brown reaction product; 0: No staining of the slide compared to control sections; 1^+: trace or weak staining definitely not seen on control slides; 2+3^+: stronger staining, but definitely less than maximal
[5] = system: mucin purified from the LS174T xenograft; test: Solid phase enzyme-linked lectin-binding assay
Experimental: A solid phase enzyme-linked lectin-binding assay has been developed for ACA to quantitate lectin binding to solubilized glycoconjugates. ACA is more sensitive in the measurement of purified cancer-associated mucin than peanut lectin, and can detect as little as 1 mg of mucin purified from the LS174T xenograft.

## amaranthin
[1]
  agglutination of A, B, O red blood cells, in words: does and No difference was observed
[1]; 2% red blood cell suspension, 1 hour at room temperature
  minimum amount to completely agglutinate cells (one HU): 2 µg/mL
[2]; 5 mM EDTA
  % Control reactivity: 100%
[2]; 25 mM EDTA
  % Control reactivity: 100%
[2]; Acid dialyzed amaranthin & AOSM
  % Control reactivity: 81%
[2]; Acid dialyzed amaranthin & AOSM, 0.1 mM CaCl2
  % Control reactivity: 80%
[2]; Acid dialyzed amaranthin & AOSM, 0.1 mM MgCl2
  % Control reactivity: 80%
[2]; Acid dialyzed amaranthin & AOSM, 0.1 mM MnCl2
  % Control reactivity: 79%
[2]; ethylene diamine tetra acetate 5-25 mM
  effect of EDTA on precipitating activity, in words: had no effect
[3]
  GalNAc concentration that inhibited labeling: ≥ 250 mM
  T-antigen concentration that inhibited labeling: ≥ 100 µM
  galactose concentration required for partial inhibition of binding: 400 mM
  lactose concentration required for partial inhibition of binding: 400 mM
[3]; GalNAc 250 mM
  Labeling score: Trace
[3]; T-antigen 100 μM
  Labeling score: 0
[3]; T-antigen 200 μM
  Labeling score: 0
[3]; T-antigen 400 μM
  Labeling score: 0
[4]
  Labeling of normal colon in the tissue survey: 1^+
[4]; biotinylated ACA 10 μg/mL or PNA 20 μg/mL
  Staining (global score 0-3+): 1^+
[4]; lower half of crypt, mean ± SEM, listed as ACA
  Percent of Epithelial Units Labeled: 46±4% and 46%±4%
[4]; sum of scores of 100 epithelial units, mean ± SEM, listed as ACA
  Weighted Average (0-400): 65±33
[4]; upper half of crypt, mean ± SEM, listed as ACA
  Percent of Epithelial Units Labeled: 7±2% and 7%±2%
[5]
  smallest amount of mucin detected: 1 mg
